Test results taken from ChEMBL document CHEMBL1799987, “In vivo and in vitro SAR of tetracyclic MAPKAP-K2 (MK2) inhibitors. Part II” (Bioorg Med Chem Lett, 2010).
pIC50: −log10 of the molar value. Converted amounts (≈) assume the structure as drawn. The source made the active and inactive calls. The calls are words filed in the database; no cut-off is given here.

Key:
PBMC = experiment: cells; conditions: Homo sapiens
Description: Inhibition of LPS-induced TNFalpha production in human PBMC preincubated for 30 mins measured after 3 hrs of LPS stimulation

[1] = Thermodynamic solubility of the compound at pH 6.8; assay type: physicochemical; conditions: buffer, read-out: Therm_solubility
Mus musculus [2] = organism: Mus musculus; experiment: animal or person; conditions: OF1, po, 1 h, read-out: INH
Description: Inhibition of LPS-induced TNFalpha production in OF1 mouse at 100 mg/kg, po after 1 hr by ELISA

Plasma = experiment: Plasma concentration in OF1 mouse at 100 mg/kg, po; assay type: ADME, organism-based; parameters: dose 100 mg/kg, route oral; conditions: in vivo
[3] = target: T1, MAP kinase-activated protein kinase 2 (Homo sapiens, UniProt P49137)
T1 sequence (P49137 whole entry): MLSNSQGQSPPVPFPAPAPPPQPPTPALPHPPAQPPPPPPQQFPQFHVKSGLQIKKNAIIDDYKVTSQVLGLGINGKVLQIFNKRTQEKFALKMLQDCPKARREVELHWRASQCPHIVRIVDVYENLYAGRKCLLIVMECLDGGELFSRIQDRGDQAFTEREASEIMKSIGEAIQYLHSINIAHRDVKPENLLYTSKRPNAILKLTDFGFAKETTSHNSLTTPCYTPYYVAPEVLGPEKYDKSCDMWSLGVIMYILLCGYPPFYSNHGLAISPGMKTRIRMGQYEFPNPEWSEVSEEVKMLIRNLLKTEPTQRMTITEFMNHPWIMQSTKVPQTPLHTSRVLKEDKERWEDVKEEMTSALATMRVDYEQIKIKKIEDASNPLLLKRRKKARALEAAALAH

[4] = target: T1, MAP kinase-activated protein kinase 2; remark: listed apart in the source
Description: Inhibition of MK2 mediated anisomycin-stimulated hsp27 phosphorylation in human THP-1 cells by fluorometric analysis

Mus musculus [5] = experiment: Antiarthritic activity in DBA/1 mouse assessed as inhibition of collagen-induced paw swelling at 100 mg/kg, po BID; assay type: functional, organism-based; parameters: dose 100 mg/kg
[6] = AUC in rat at 1 mg/kg, po; assay type: ADME, organism-based; parameters: dose 1 mg/kg, route oral; conditions: plasma
[7] = Clearance in rat at 1 mg/kg, po; assay type: ADME, organism-based; parameters: dose 1 mg/kg, route oral; conditions: in vivo
[8] = Half life in rat at 1 mg/kg, po; assay type: ADME, organism-based; parameters: dose 1 mg/kg, route oral; conditions: in vivo
[9] = Plasma concentration in collagen-induced arthritic DBA/1 mouse model at 100 mg/kg, po BID measured 2 hrs post last dose; assay type: ADME, organism-based; parameters: dose 100 mg/kg, route oral
Mus musculus [10] = experiment: Toxicity in collagen-induced arthritic DBA/1 mouse model assessed as body weight reduction at 100 mg/kg, po BID; assay type: organism-based; parameters: dose 100 mg/kg, route oral; conditions: in vivo
Rattus norvegicus [11] = experiment: Antiarthritic activity in rat assessed as inhibition of antigen-induced paw swelling at 100 mg/kg, po BID; assay type: functional, organism-based; parameters: dose 100 mg/kg
[12] = Oral bioavailability in rat at 1 mg/kg; assay type: ADME, organism-based; conditions: in vivo
[13] = Cmax in rat at 1 mg/kg, po; assay type: ADME, organism-based; parameters: dose 1 mg/kg, route oral; conditions: in vivo
Rattus norvegicus [14] = experiment: Volume of distribution at steady state in rat at 1 mg/kg, po; assay type: ADME, organism-based; parameters: dose 1 mg/kg, route oral; conditions: in vivo
[15] = Plasma concentration in antigen-induced arthritic rat model at 100 mg/kg, po BID measured 16 hrs post last dose; assay type: ADME, organism-based; parameters: dose 100 mg/kg, route oral
[16] = Plasma concentration in collagen-induced arthritic DBA/1 mouse model at 100 mg/kg, po BID measured 6 hrs post last dose; assay type: ADME, organism-based; parameters: dose 100 mg/kg, route oral
[17] = Plasma concentration in antigen-induced arthritic rat model at 100 mg/kg, po BID measured 6 hrs post last dose; assay type: ADME, organism-based; parameters: dose 100 mg/kg, route oral
Mus musculus [18] = experiment: Antiarthritic activity in DBA/1 mouse assessed as inhibition of collagen-induced joint erosion at 100 mg/kg, po BID; assay type: functional, organism-based; parameters: dose 100 mg/kg
Mus musculus [19] = experiment: Antiarthritic activity in DBA/1 mouse assessed as inhibition of collagen-induced proteoglycan loss at 100 mg/kg, po BID; assay type: functional, organism-based; parameters: dose 100 mg/kg
Mus musculus [20] = experiment: Antiarthritic activity in DBA/1 mouse assessed as inhibition of collagen-induced inflammatory cell infiltration at 100 mg/kg, po BID; assay type: functional, organism-based; parameters: dose 100 mg/kg
[21] = Plasma concentration in antigen-induced arthritic rat model at 100 mg/kg, po BID measured 2 hrs post last dose; assay type: ADME, organism-based; parameters: dose 100 mg/kg, route oral
Mus musculus [22] = experiment: Antiarthritic activity in DBA/1 mouse assessed as inhibition of collagen-induced joint damage at 100 mg/kg, po BID; assay type: functional, organism-based; parameters: dose 100 mg/kg
Rattus norvegicus [23] = experiment: Toxicity in antigen-induced arthritic rat model assessed as body weight reduction at 100 mg/kg, po BID; assay type: organism-based; parameters: dose 100 mg/kg, route oral; conditions: in vivo

O=C1NCC2(CNC2)c2oc3c(c21)CCc1cnc(-c2cccc(F)c2)cc1-3
pIC50 (PBMC): 5.60
solubility thermodynamic [1]: 51 µM (≈ 19.1 µg/mL)

CN1CC2(CNC(=O)c3c2[nH]c2c3CCc3cnc(-c4cccc(F)c4)nc3-2)C1
pIC50 (PBMC): 6.30

COCCOc1cncc(-c2cc3c(cn2)CCCc2c-3[nH]c3c2C(=O)NCC3)c1
pIC50 (PBMC): 5.96
solubility thermodynamic [1]: 21 µM (≈ 8.49 µg/mL)

CN1CC2(CNC(=O)c3c2[nH]c2c3Cc3cnc(-c4ccccc4F)cc3-2)C1
pIC50 (PBMC): < 5.00
solubility thermodynamic [1]: 69 µM (≈ 25.8 µg/mL)

O=C1NCC2(CNC2)c2[nH]c3c(c21)CCc1cnc(-c2cccc(F)c2)cc1-3
pIC50 (PBMC): 6.70

O=C1NC2(CC2)Cc2[nH]c3c(c21)CCc1cnc(-c2ccccc2F)nc1-3
pIC50 (PBMC): 5.64
solubility thermodynamic [1]: 8 µM (≈ 2.88 µg/mL)

COc1ccc(-c2cc3c(cn2)CCc2c-3[nH]c3c2C(=O)NC2(CC2)C3)cc1
inhibition in vivo at 100 mg/kg (Mus musculus [2]): 81%
pIC50 (PBMC): 6.70
solubility thermodynamic [1]: < 4 µM
concentration (Plasma): 25000 nM

O=C1NCC2(CC2)c2[nH]c3c(c21)CCc1cnc(-c2cccc(F)c2)cc1-3
pIC50 (PBMC): 6.05
solubility thermodynamic [1]: < 4 µM

COc1ccc(-c2cc3c(cn2)CCc2c-3[nH]c3c2C(=O)NCC32CC2)cc1
inhibition in vivo at 100 mg/kg (Mus musculus [2]): 16%
pIC50 (PBMC): 5.77
solubility thermodynamic [1]: < 4 µM
concentration (Plasma): 600 nM

Cn1c2c(c3c1C1(CNC1)CNC3=O)CCc1cnc(-c3ccccc3F)cc1-2
pIC50 (PBMC): 5.74
solubility thermodynamic [1]: 54 µM (≈ 21 µg/mL)

COc1ccc(-c2cc3c(cn2)CCc2c-3[nH]c3c2C(=O)NCC3)cc1
pIC50 (PBMC): 7.00
solubility thermodynamic [1]: < 4 µM

CN1CC2(CNC(=O)c3c2[nH]c2c3CCc3cnc(-c4ccc(F)nc4)nc3-2)C1
pIC50 (PBMC): 6.15
solubility thermodynamic [1]: 173 µM (≈ 67.5 µg/mL)

O=C1NCCc2[nH]c3c(c21)CCc1cnc(-c2ccccc2F)cc1-3
pIC50 (PBMC): 5.82
solubility thermodynamic [1]: 11 µM (≈ 3.67 µg/mL)

O=C1NCC2(CN(CCF)C2)c2[nH]c3c(c21)CCc1cnc(-c2ccccc2F)cc1-3
pIC50 (PBMC): 5.82

CN1CC2(CNC(=O)c3c2[nH]c2c3CCc3cnc(-c4ccc(OCCN5CCOCC5)cc4)cc3-2)C1
pIC50 (PBMC): 6.22

CN1CC2(CNC(=O)c3c2[nH]c2c3CCc3cnc(-c4ccccc4F)cc3-2)C1
inhibition in vivo at 100 mg/kg (Mus musculus [2]): 90%
pIC50 (PBMC): 7.00
solubility thermodynamic [1]: > 1000 µM
concentration (Plasma): 6000 nM

O=C1NC2(CC2)Cc2[nH]c3c(c21)CCc1cnc(-c2ccc(OCCN4CCOCC4)cc2)nc1-3
pIC50 (PBMC): 6.52
solubility thermodynamic [1]: < 4 µM

COCCOc1cncc(-c2cc3c(cn2)CCc2c-3[nH]c3c2C(=O)NCC3)c1
pIC50 (PBMC): 6.40
solubility thermodynamic [1]: 8 µM (≈ 3.12 µg/mL)

O=C1NC2(CC2)Cc2[nH]c3c(c21)CCc1cnc(-c2cccc(F)c2)cc1-3
inhibition in vivo at 100 mg/kg (Mus musculus [2]): 55%
pIC50 (PBMC): 6.10
solubility thermodynamic [1]: 5 µM (≈ 1.8 µg/mL)
concentration (Plasma): 15000 nM

CN1CC2(CNC(=O)c3c2[nH]c2c3CCc3cnc(-c4cccc(F)c4)cc3-2)C1
inhibition in vivo at 100 mg/kg (Mus musculus [2]): 0%
pIC50 (PBMC): 6.70
solubility thermodynamic [1]: 10 µM (≈ 3.88 µg/mL)
concentration (Plasma): 1000 nM

O=C1NC2(CC2)Cc2[nH]c3c(c21)CCc1cnc(-c2ccccc2F)cc1-3
pIC50 (PBMC): 6.05
solubility thermodynamic [1]: 10 µM (≈ 3.59 µg/mL)

COc1ccc(-c2ncc3c(n2)-c2[nH]c4c(c2CC3)C(=O)NCC42CC2)cc1
pIC50 (PBMC): 6.40
solubility thermodynamic [1]: < 4 µM

COc1ccc(-c2ncc3c(n2)-c2[nH]c4c(c2CC3)C(=O)NCC4)cc1
pIC50 (PBMC): 6.05
solubility thermodynamic [1]: < 5 µM

CN1CCC2(CC1)CNC(=O)c1c2[nH]c2c1CCc1cnc(-c3ccccc3F)cc1-2
pIC50 (PBMC): 6.70
solubility thermodynamic [1]: > 1000 µM

CC(=O)N1CC2(CNC(=O)c3c2[nH]c2c3CCc3cnc(-c4ccccc4F)cc3-2)C1
pIC50 (PBMC): 5.19
solubility thermodynamic [1]: 24 µM (≈ 9.99 µg/mL)

CN1CC2(CNC(=O)c3c2[nH]c2c3CCc3cnc(-c4ccc(OCCN5CCOCC5)cc4)nc3-2)C1
pIC50 (PBMC): 7.00

CN1CC2(CNC(=O)c3c2[nH]c2c3CCc3cnc(-c4ccc(F)nc4)cc3-2)C1
inhibition in vivo at 100 mg/kg (Mus musculus [2]): 26%
pIC50 (PBMC): 7.00
solubility thermodynamic [1]: 47 µM (≈ 18.3 µg/mL)
concentration (Plasma): 600 nM

COc1ccc(-c2cc3c(cn2)CCc2c-3[nH]c3c2C(=O)NCC32CN(C)C2)cc1
inhibition in vivo at 100 mg/kg (Mus musculus [2]): 0%
pIC50 (PBMC): 7.22
solubility thermodynamic [1]: 40 µM (≈ 16 µg/mL)
concentration (Plasma): 100 nM

CCN1CC2(CNC(=O)c3c2[nH]c2c3CCc3cnc(-c4ccccc4F)cc3-2)C1
pIC50 (PBMC): 6.15
solubility thermodynamic [1]: 950 µM (≈ 382 µg/mL)

COc1ccc(-c2ncc3c(n2)-c2[nH]c4c(c2CC3)C(=O)NCC42CN(C)C2)cc1
pIC50 (PBMC): 7.00
solubility thermodynamic [1]: 43 µM (≈ 17.3 µg/mL)

O=C1NCC2(CNC2)c2[nH]c3c(c21)CCc1cnc(-c2ccccc2F)cc1-3
pIC50 (PBMC): 7.00
solubility thermodynamic [1]: 337 µM (≈ 126 µg/mL)

CN1CC2(CNC(=O)c3c2[nH]c2c3CCc3cnc(-c4ccccc4F)nc3-2)C1
pIC50 (PBMC): 5.80
solubility thermodynamic [1]: 373 µM (≈ 145 µg/mL)

O=C1NC2(CC2)Cc2[nH]c3c(c21)CCc1cnc(-c2ccc(F)nc2)nc1-3
pIC50 (PBMC): 6.15
solubility thermodynamic [1]: < 4 µM

COc1ccc(-c2cc3c(cn2)CCc2c-3[nH]c3c2C(=O)NC2(C3)CN(C)C2)cc1
pIC50 (PBMC): 5.96
solubility thermodynamic [1]: < 4 µM

COCCOc1cncc(-c2cc3c(ccc4c5c([nH]c43)CCNC5=O)cn2)c1
pIC50 (PBMC): 6.52
pIC50 [3]: 8.00
solubility thermodynamic [1]: < 4 µM
pIC50 [4]: 5.82

O=C1NC2(CC2)Cc2[nH]c3c(c21)CCc1cnc(-c2ccc(F)nc2)cc1-3
Activity (Mus musculus [5]): Active
AUC [6]: 2 µM·h
CL/F [7]: 12 mL/min/kg
inhibition in vivo at 100 mg/kg (Mus musculus [2]): 96%
half-life [8]: 1.3 h
concentration at 2 h [9]: 16000 nM
pIC50 (PBMC): 6.52
Activity (Mus musculus [10]): Non-toxic
Activity (Rattus norvegicus [11]): Active
bioavailability [12]: 24%
Cmax [13]: 105 nM
Vdss (Rattus norvegicus [14]): 1.9 L/kg
concentration at 16 h [15]: 500 nM
concentration at 6 h [16]: 2400 nM
concentration at 6 h [17]: 9800 nM
Activity (Mus musculus [18]): Active
Activity (Mus musculus [19]): Active
Activity (Mus musculus [20]): Active
concentration at 2 h [21]: 11700 nM
Activity (Mus musculus [22]): Active
solubility thermodynamic [1]: 9 µM (≈ 3.24 µg/mL)
concentration (Plasma): 30000 nM
Activity (Rattus norvegicus [23]): Non-toxic

COc1ccc(-c2cc3c(cn2)CCc2c-3[nH]c3c2C(=O)NC2(CNC2)C3)cc1
pIC50 (PBMC): 5.89
solubility thermodynamic [1]: 32 µM (≈ 12.4 µg/mL)

COc1ccc(-c2ncc3c(n2)-c2[nH]c4c(c2CC3)C(=O)NC2(CC2)C4)cc1
solubility thermodynamic [1]: < 4 µM

COCCCOc1cncc(-c2cc3c(cn2)CCc2c-3[nH]c3c2C(=O)NCC32CN(C)C2)c1
pIC50 (PBMC): 6.15

COCCOc1cncc(-c2ncc3c(n2)-c2[nH]c4c(c2CC3)C(=O)NCC42CN(C)C2)c1
pIC50 (PBMC): 5.82

O=C1NCC2(CC2)c2[nH]c3c(c21)CCc1cnc(-c2ccc(F)nc2)cc1-3
inhibition in vivo at 100 mg/kg (Mus musculus [2]): 30%
pIC50 (PBMC): 6.15
solubility thermodynamic [1]: < 4 µM
concentration (Plasma): 1900 nM

O=C1NC2(CC2)Cc2[nH]c3c(c21)CCc1cnc(-c2ccc(OCCN4CCOCC4)cc2)cc1-3
pIC50 (PBMC): 6.70
solubility thermodynamic [1]: < 4 µM

O=C1NCCc2[nH]c(-c3ccnc(-c4ccccc4F)c3)cc21
pIC50 (PBMC): < 5.00
solubility thermodynamic [1]: 337 µM (≈ 104 µg/mL)

O=C1NCCc2[nH]c3c(c21)CCc1cnc(-c2cccc(F)c2)cc1-3
pIC50 (PBMC): 6.30
solubility thermodynamic [1]: < 4 µM

CN1CC2(CNC(=O)c3c4c(n(C)c32)-c2cc(-c3ccccc3F)ncc2CC4)C1
pIC50 (PBMC): 5.96
solubility thermodynamic [1]: 41 µM (≈ 16.5 µg/mL)
